1 compound from article PMC11129182, “Development of Inhibitors, Probes, and PROTAC Provides a Complete Toolbox to Study PARK7 in the Living Cell” (Journal of Medicinal Chemistry, 2024) can be followed below.

Test [1] concerns other proteins of A549 cells. Nature of the test: TMT-based global proteomic profiling in A549 cells, other proteins. The format is cell-based, Homo sapiens. The note with it: 8 h; for Abundance Ratio: (compound) / (1 DMSO) / Abundance Ratio: log2 (compound) / (1 DMSO): A549, 5 μM. On the procedure:
(§1) A549 cells were seeded into 10 cm plates in 10 mL of media. […] Cells were lysed using a 5% SDS lysis buffer (100 mM Tris-HCl, pH 7.6) and were incubated at 95 °C for 4 min. Protein determination was performed using the Pierce BCA Gold protein assay. 100 μg of protein of each sample was reduced and alkylated, and excess iodoacetamide was quenched using 5 mM TCEP, 15 mM iodoacetamide, and 10 mM DTT, respectively. The protein was pelleted down using chloroform/methanol precipitation, and the resulting pellets were resolubilized in 40 mM HEPES pH 8.4. […] The Pierce BCA Gold protein assay was used to determine the peptide concentration. The peptides were labeled with TMTpro Label Reagents in a 1:4 ratio by mass (peptides/TMT reagents) for 1 h at RT. Five μL of 6% hydroxylamine was added to quench excess TMT reagent and incubated for 15 min at RT. Samples were pooled and lyophilized. The sample was subsequently fractionated on an Agilent 1200 series HPLC system (Agilent Technologies). 75 μg of the pooled sample was dissolved in solvent A (10 mM NH4HCO3, pH 8.4), injected onto, and eluted from an Agilent Eclipse Plus C18 2.1 × 150 mm 3.5 μm column (Agilent Technologies). The gradient was run from 2 to 90% solvent B (10 mM NH4HCO3, pH 8.4 final concentration, 20/80 water/acetonitrile v/v) in 30 min at a flow rate of 200 μL/min. Twelve fractions were made; every 30 s a fraction was collected in a vial, and the eluate of the next 30 s was collected in the next vial and so on until it loops back to the first vial (5 loops of 6 min each). Afterward, the samples were lyophilized.
2.2.07 (www.matrixscience.com) for protein identification. Mascot searches were with 10 ppm and 0.02 Da deviation for precursor and fragment mass, respectively. Enzyme specificity was set to trypsin. Up to two missed cleavages were allowed. Methionine oxidation and acetyl on protein N-terminus were set as variable modifications. Carbamidomethyl on Cys and TMTpro on Lys and N-terminus were set as fixed modifications. Protein FDR of 1% was set. Normalization was on total peptide amount. The values for each TMT channel were normalized to the average of the values for the DMSO samples for the same peptide, and these values were named FC. The log2 FC values of all replicates for the same master protein were averaged to give the “Average log2 FC”. A one-sample t test was performed against the null hypothesis of log2 FC = 0, and the resulting −log10p values were reported for each protein. The volcano plot was plotted using GraphPad Prism v.9.01.

The target of test [2] is T1, PARK7 (Homo sapiens, UniProt Q99497).
T1 sequence (Q99497 1-189): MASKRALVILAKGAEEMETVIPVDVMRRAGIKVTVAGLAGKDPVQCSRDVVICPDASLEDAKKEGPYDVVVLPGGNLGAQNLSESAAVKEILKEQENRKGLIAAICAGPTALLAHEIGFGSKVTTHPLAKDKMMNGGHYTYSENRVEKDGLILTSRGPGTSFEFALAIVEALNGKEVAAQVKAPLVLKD
Nature of the test: Activity evaluation of PROTACs in cells (PARK7 degradation, immunoblot). The arrangement: Dmax: dose or concentration left out as unconfirmed. In general terms: Immunoblotting shows a protein as a band on a membrane.
Description: A549 cells were seeded into 6-well plates. The next day after seeding, cells were incubated with the indicated concentrations of indicated PROTACs for 8 h. The cells were then washed with PBS and collected. The collected cell pellets were lysed with Tris-triton buffer as described above. The prepared cell lysate of each sample (10 μL) was added 5 μL 3× LDS + 5% β-mercaptoethanol, and boiled for 10 min.

For test [3], the target named is T1, PARK7. Kind of test: TMT-based global proteomic profiling in A549 cells, PARK7. It counts as cell-based. Further details: incubating A549 cells with 5 μM JYQ-194 for 8 h, along with 5 μM JYQ-173 and DMSO as a control; endogenous in cells; host or cells: A549. The note with it: 5 μM, 8 h. On the procedure:
as §1, with “Twelve fractions were made; every 30 s a fraction was collected in a vial, and the eluate of the next 30 s was collected in the next vial and so on until it loops back to the first vial (5 loops of 6 min each). Afterward, the samples were lyophilized.” left out

Turning to `N#CN1CC[C@@H](C(=O)Nc2nc3c(s2)CN(C(=O)c2cc(-n4cc(COCCOCCNc5cccc6c5C(=O)N(C5CCC(=O)NC5=O)C6=O)nn4)ccc2F)CC3)C1` (stereo partly shown) [JYQ-194], the “Abundance Ratio: (compound) / (1 DMSO)” value was determined as 1.074 in test [1] (ESYT2 (A0FGR8)); 1.045 in test [1] (RBM47 (A0AV96)); 1.081 in test [1] (SMIM26 (A0A096LP01)); 0.975 in test [1] (TTC26 (A0AVF1)); 0.964 in test [1] (UBA6 (A0AVT1)). Moreover, the “Abundance Ratio: log2 (compound) / (1 DMSO)” value is on record as 0.1157 in test [1] (ESYT2 (A0FGR8)); 0.07722 in test [1] (RBM47 (A0AV96)); 0.1302 in test [1] (SMIM26 (A0A096LP01)); -0.08647 in test [1] (TTC26 (A0AVF1)); -0.04606 in test [1] (UBA6 (A0AVT1)). Also, in test [1] (A549 cells, 5 μM), the “DOP1B protein level (total proteome profiling)” value is “decreased”. Further, the “HINT2 protein level (total proteome profiling)” value in test [1] (A549 cells, 5 μM) is reported as “partly decreased”. Also, in test [1] (A549 cells, 5 μM), the “TM7SF3 protein level (total proteome profiling)” value is listed as “decreased”. In addition, the Dmax (usually the largest share of the target that was removed) on PARK7 [2] (A549) is approximately 80%. Moreover, at PARK7 [2] (A549 cells, 5 μM), the “time from which PARK7 degradation is observed” value is 4 h. Further, on PARK7 [2] (A549 cells, 5 μM, remained until 24 h), the “time by which maximal PARK7 degradation is reached” value worked out at 8 h. Further, at PARK7 [2] (A549 cells, 0.1 to 5 μM, 8 h), the “concentration at which PARK7 degradation starts” value was found to be 0.1 µM. The “PARK7 degradation in other tumor cell lines” value at PARK7 [2] (Hela, H1299, and MCF7 cells, 8 h) is on record as “PARK7 degradation was observed in all these cells in a dose-dependent manner”. In addition, on PARK7 [3], the “PARK7 protein level (total proteome profiling)” value was “induced the degradation of PARK7”.
